{
  "source": "patent US20100305023A1",
  "about": "“Method of Delaying The Onset of Clinically Definite Multiple Sclerosis” (Teva Pharmaceutical Industries, Ltd., priority 2007, published 2010)",
  "key": {"[1]": {"test_system": "patients presenting a clinically isolated syndrome (CIS)", "protocol": "A clinical trial was undertaken to assess the effect of treatment with GA compared to placebo on the time to conversion to CDMS, as determined by Poser (the occurrence of the second clinical attack) during the double-blind phase.\nSubjects receive their first dose of study medication at the baseline visit. 20 mg GA formulation is injected once daily by subcutaneous route via pre-filled syringe manufactured by Teva Pharmaceutical Industries Ltd., Israel. Subjects are evaluated at study centers at baseline, at months 1, 3, and every 3 months thereafter.\nThe duration of the double-blind phase is 36 months (3 years) or until subject's conversion to CDMS, whichever comes first. Conversion to CDMS is counted when the subject's symptoms are accompanied by observed objective neurological changes, consistent with: • a) an increase of at least 0.5 in the EDSS score or one grade in the score of two or more of the seven Functional Systems (FS); or • b) two grades in the score of one of FS as compared to the previous evaluation.\nThe subject must not be undergoing any acute metabolic changes such as fever or other medical abnormality. A change in bowel/bladder function or in cognitive function must not be entirely responsible for the changes in EDSS or FS scores."}, "patients with RRMS": {"test_system": "patients with RRMS", "conditions": "cited from earlier work"}, "[2]": {"test_system": "subjects with clinically isolated syndrome (CIS) suggestive of MS", "conditions": "MRS, NAA/Cr over time", "protocol": "Single voxel magnetic resonance spectroscopy (MRS) exams were performed at baseline and once a year subsequently. Scans were quantified locally and sent to the MRS Unit (Montreal) where they were deemed acceptable or in need of repeat (either acquisition or analysis). The MRS endpoint is the change in the ratio of N-acetylaspartate/creatine (NAA/Cr) ratio over time. NAA is seen only in neuronal tissue and is a marker of neuronal integrity; reducing with most types of insults to the brain. Cr is often used as an internal reference because it is relatively stable.\nMRS scans were performed after T2-weighted fast-spin-time echo (FSE/TSE) scans and before gadolinium injection. MRS data was obtained from a region of central white matter using a 90-180-180 (PRESS) volume selective sequence to excite a volume of 100 mm×100 mm×20 mm (range 80-100 mm×80-100 mm×20 mm) centered on the body of the corpus callosum using a long echo time (TR 2000, TE 272). The rotation of the acquisition region was the same as for the main image series. […] The region was centered left-right so that the brain mid-line passes centrally through the region. The region was positioned anterior-posterior so that the anterior corners and posterior corners are equidistant from the skull."}, "[3]": {"test_system": "patients presenting a clinically isolated syndrome (CIS)", "conditions": "early treatment vs delayed start of treatment with GA", "protocol": "A clinical trial was undertaken to assess, within the time frame of 5 years, the neuroprotective effect of early versus delayed treatment with GA as reflected by clinical and MRI parameters measuring the accumulated irreversible brain tissue damage.\nSubjects are evaluated at study centers at baseline, at months 1, 3, and every 3 months thereafter. MRI evaluations of T1 and T2 variables are assessed at screening, baseline, at 3 months, and every 3 months thereafter until conversion to CDMS or up to 3 years. An additional MRI assessment is performed upon conversion to CDMS only if no MRI is performed within the previous month. MRI is then performed at the next scheduled visit and every 6 months thereafter.\nBrain atrophy, as measured by the change in brain volume according to the Structural Image Evaluation of Normalized Atrophy (SIENA) technique is assessed at baseline, every 12 months and at conversion to CDMS.\nThe volume of black holes is assessed at baseline and at every 6 months.\nThe count of new T1-weighted hypointense lesions is assessed every 6 months.\nExploratory endpoints are defined to assess the neuroprotective effect as reflected by clinical and MRI parameters comparing the group originally assigned to GA treatment with that randomized to receive placebo treatment (delayed start of treatment with GA). The 5-year data cohort will be used for inference. […]"}, "[4]": {"test_system": "patients presenting a clinically isolated syndrome (CIS)", "remark": "listed apart in the source", "protocol": "A clinical trial was undertaken to assess, within the time frame of the up to 3-years placebo-controlled study period, the effect of GA on clinical and MRI parameters.\nSubjects received their first dose of study medication at the baseline visit. 20 mg GA formulation was injected once daily by subcutaneous route via pre-filled syringe manufactured by Teva Pharmaceutical Industries Ltd., Israel. The duration of the double-blind phase is 36 months (3 years) or until subject's conversion to CDMS, whichever comes first."}, "[5]": {"test_system": "patients presenting a clinically isolated syndrome (CIS)", "experimental": "Subgroup analyses related to the primary efficacy variable were performed with respect to demographics and CIS characteristics at initial attack onset (gender, age, and type of unifocal manifestation and steroid treatment for the initial attack), and MRI findings (disease dissemination/activity) at study baseline.\nNo correction for multiplicity was done for any of the following post-hoc analyses. • 1. Subgroup analysis of the primary endpoint for: gender, age, type of unifocal manifestation and corticosteroid use for the initial attack employed the Cox proportional hazards model, as for the principal analysis. Subgroup analyses of proportion of subjects converted to CDMS according to MRI activity at baseline was analyzed using Logistic Regression, as in the fourth secondary endpoint. • 2. Number of relapses: analysis of number of relapses during the placebocontrolled phase, during the entire study and on a yearly basis was performed using the Poisson regression. • 3. Time to confirmed Expanded Disability Status Scale (EDSS) progression: Progression of disability was defined as worsening of at least 1 point in EDSS sustained over 2 consecutive measurements which are at least 6 months apart. Analysis of time to confirmed EDSS progression was performed employing the Cox proportional hazards model.\nSubgroups were created for demographics and CIS characteristics at onset (gender, age, and type of unifocal presentation and steroid treatment for the initial attack), and MRI findings (disease dissemination/activity) at study baseline.", "remark": "listed apart in the source"}, "[6]": {"conditions": "20 mg once daily s.c. vs placebo"}},
  "note": "Like-named read-outs stand apart in the source and are kept apart here.",
  "data": [
    {"substance": "L-glutamic acid polymer with L-alanine, L-lysine, L-tyrosine, acetate (salt) [glatiramer acetate]", "values": [
      {"measurement": "prolongation of the quartile time to CDMS", "setting": "[1]; [6]", "result": 115, "unit": "%"},
      {"measurement": "reduction of the risk in developing clinically definite MS (CDMS)", "setting": "[1]; [6]", "result": 44, "unit": "%"},
      {"measurement": "Kaplan-Meier time to conversion to CDMS, 25% percentile", "setting": "[1]; 20 mg once daily s.c., ITT, placebo 336 days", "result": 722, "unit": "days"},
      {"measurement": "total number of enhancing lesions as measured by MRI", "setting": "patients with RRMS; 20 and 40 mg/day subcutaneous, MS patients", "result": "reduce"},
      {"measurement": "efficacy in reducing the frequency of relapses", "setting": "patients with RRMS; patients with RRMS", "result": "well established"},
      {"measurement": "axonal damage", "setting": "[2]", "result": "reduces"},
      {"measurement": "5-year relapse rate", "setting": "[3]", "result": "decreased"},
      {"measurement": "level of disability (EDSS Score)", "setting": "[3]", "result": "reduced"},
      {"measurement": "proportion of patients who convert to CDMS during the 5-year treatment period", "setting": "[3]", "result": "decreased"},
      {"measurement": "time from randomization to conversion to CDMS during the 5-year period", "setting": "[3]", "result": "increased"},
      {"measurement": "patients who developed CDMS at the end of the two-year study", "setting": "[4]; 20 mg once daily s.c., placebo 43 percent", "result": 25, "unit": "%"},
      {"measurement": "probability of development of CDMS over 3 years (Kaplan-Meier estimates)", "setting": "[4]; 20 mg once daily s.c., placebo 65%", "result": 36.4, "unit": "%"},
      {"measurement": "treatment effect in decreasing the rate of new T2 lesions at LOV", "setting": "[4]; 20 mg vs placebo, last observed value", "result": 58, "unit": "%"},
      {"measurement": "reduction of new T1 Gd-enhancing lesions in comparison to placebo, annual comparison", "setting": "[4]; 12 months", "result": "> 4.8", "unit": "fold"},
      {"measurement": "reduction of new T2 lesions in comparison to placebo, annual comparison", "setting": "[4]; 12 months", "result": 6, "unit": "fold"},
      {"measurement": "reduction of new T2 lesions in comparison to placebo, annual comparison", "setting": "[4]; 24 months", "result": 4, "unit": "fold"},
      {"measurement": "reduction of new lesions in comparison to placebo, annual comparison of T1 Gd-enhancing lesions", "setting": "[4]; 24 months", "result": "approximately 3.8 fold"},
      {"measurement": "Number of new T2 lesions at LOV, max", "setting": "[4]; GA 20 mg", "result": 15},
      {"measurement": "Number of new T2 lesions at LOV, median", "setting": "[4]; GA 20 mg", "result": 0},
      {"measurement": "Number of new T2 lesions at LOV, min", "setting": "[4]; GA 20 mg", "result": 0},
      {"measurement": "Number of new T2 lesions at LOV, mean", "setting": "[4]; GA 20 mg, placebo 1.8", "result": 0.7},
      {"measurement": "reduction of new T1 Gd-enhancing lesions in comparison to placebo, annual comparison", "setting": "[4]; ITT cohort, 12 months", "result": "> 4.5", "unit": "fold"},
      {"measurement": "reduction of new T2 lesions in comparison to placebo, annual comparison", "setting": "[4]; ITT cohort, 12 months", "result": "> 3", "unit": "fold"},
      {"measurement": "reduction of new T2 lesions in comparison to placebo, annual comparison", "setting": "[4]; ITT cohort, 24 months", "result": "approximately 4 fold"},
      {"measurement": "reduction of new lesions in comparison to placebo, annual comparison of T1 Gd-enhancing lesions", "setting": "[4]; ITT cohort, 24 months", "result": "approximately 3 fold"},
      {"measurement": "reduction of the cumulative number of new T1 Gd-enhancing lesions at LOV compared to placebo", "setting": "[4]; last observed value", "result": 619},
      {"measurement": "cumulative number of new T1 Gd-enhancing lesions at LOV", "setting": "[4]; placebo 1.19", "result": 0.46},
      {"measurement": "Risk Reduction with Copaxone over Placebo", "setting": "[5]; Age <30 years, listed as Copaxone ®", "result": 53, "unit": "%"},
      {"measurement": "Risk Reduction with Copaxone over Placebo", "setting": "[5]; Age <30 years, listed as Copaxone®", "result": 53, "unit": "%"},
      {"measurement": "% CDMS in the placebo-controlled phase", "setting": "[5]; Age >=30 years", "result": 15, "unit": "%"},
      {"measurement": "% CDMS in the placebo-controlled phase", "setting": "[5]; Corticosteroids use for initial attack: No", "result": 9, "unit": "%"},
      {"measurement": "Risk Reduction with Copaxone over Placebo", "setting": "[5]; Corticosteroids use for initial attack: No, listed as Copaxone ®", "result": 54, "unit": "%"},
      {"measurement": "Risk Reduction with Copaxone over Placebo", "setting": "[5]; Corticosteroids use for initial attack: No, listed as Copaxone®", "result": 54, "unit": "%"},
      {"measurement": "% CDMS in the placebo-controlled phase", "setting": "[5]; Corticosteroids use for initial attack: Yes", "result": 16, "unit": "%"},
      {"measurement": "% CDMS in the placebo-controlled phase", "setting": "[5]; Sex: Female", "result": 14, "unit": "%"},
      {"measurement": "Risk Reduction with Copaxone over Placebo", "setting": "[5]; Sex: Female, listed as Copaxone ®", "result": 48, "unit": "%"},
      {"measurement": "Risk Reduction with Copaxone over Placebo", "setting": "[5]; Sex: Female, listed as Copaxone®", "result": 48, "unit": "%"},
      {"measurement": "% CDMS in the placebo-controlled phase", "setting": "[5]; Sex: Male", "result": 11, "unit": "%"},
      {"measurement": "Risk Reduction with Copaxone over Placebo", "setting": "[5]; Sex: Male, listed as Copaxone ®", "result": 43, "unit": "%"},
      {"measurement": "Risk Reduction with Copaxone over Placebo", "setting": "[5]; Sex: Male, listed as Copaxone®", "result": 43, "unit": "%"},
      {"measurement": "% CDMS in the placebo-controlled phase", "setting": "[5]; T1 Gd-enhancing lesions at baseline: T1 = 0 lesions", "result": 14, "unit": "%"},
      {"measurement": "Risk Reduction with Copaxone over Placebo", "setting": "[5]; T1 Gd-enhancing lesions at baseline: T1 = 0 lesions, listed as Copaxone ®", "result": 44, "unit": "%"},
      {"measurement": "Risk Reduction with Copaxone over Placebo", "setting": "[5]; T1 Gd-enhancing lesions at baseline: T1 = 0 lesions, listed as Copaxone®", "result": 44, "unit": "%"},
      {"measurement": "% CDMS in the placebo-controlled phase", "setting": "[5]; T1 Gd-enhancing lesions at baseline: T1 >= 1 lesions", "result": 11, "unit": "%"},
      {"measurement": "Risk Reduction with Copaxone over Placebo", "setting": "[5]; T1 Gd-enhancing lesions at baseline: T1 >= 1 lesions, listed as Copaxone ®", "result": 71, "unit": "%"},
      {"measurement": "Risk Reduction with Copaxone over Placebo", "setting": "[5]; T1 Gd-enhancing lesions at baseline: T1 >= 1 lesions, listed as Copaxone®", "result": 71, "unit": "%"},
      {"measurement": "% CDMS in the placebo-controlled phase", "setting": "[5]; T2 lesions at baseline: 2-8 lesions", "result": 3, "unit": "%"},
      {"measurement": "Risk Reduction with Copaxone over Placebo", "setting": "[5]; T2 lesions at baseline: 2-8 lesions, listed as Copaxone ®", "result": 67, "unit": "%"},
      {"measurement": "Risk Reduction with Copaxone over Placebo", "setting": "[5]; T2 lesions at baseline: 2-8 lesions, listed as Copaxone®", "result": 67, "unit": "%"},
      {"measurement": "% CDMS in the placebo-controlled phase", "setting": "[5]; T2 lesions at baseline: >=9 lesions", "result": 22, "unit": "%"},
      {"measurement": "Risk Reduction with Copaxone over Placebo", "setting": "[5]; T2 lesions at baseline: >=9 lesions, listed as Copaxone ®", "result": 58, "unit": "%"},
      {"measurement": "Risk Reduction with Copaxone over Placebo", "setting": "[5]; T2 lesions at baseline: >=9 lesions, listed as Copaxone®", "result": 58, "unit": "%"},
      {"measurement": "% CDMS in the placebo-controlled phase", "setting": "[5]; Unifocal manifestation: Optic", "result": 6, "unit": "%"},
      {"measurement": "Risk Reduction with Copaxone over Placebo", "setting": "[5]; Unifocal manifestation: Optic, listed as Copaxone ®", "result": 66, "unit": "%"},
      {"measurement": "Risk Reduction with Copaxone over Placebo", "setting": "[5]; Unifocal manifestation: Optic, listed as Copaxone®", "result": 66, "unit": "%"},
      {"measurement": "% CDMS in the placebo-controlled phase", "setting": "[5]; Unifocal manifestation: Spinal", "result": 7, "unit": "%"},
      {"measurement": "Risk Reduction with Copaxone over Placebo", "setting": "[5]; Unifocal manifestation: Spinal", "result": 17, "unit": "%"}
    ]}
  ]
}
